In patent US8207216B2, “Benzofuran-3-yl(indol-3-yl) maleimides as potent GSK3 inhibitors” (The Board of Trustees of the University of Illinois, priority 2006, dated 2012):

Assays:
[1] = biological target: T1, recombinant human His6-GSK-3β (Homo sapiens, UniProt P49841); test: GSK-3β kinase assay, [γ32P] transfer to primed glycogen synthase peptide; assay type: biochemical; conditions: for IC50: 10 μM ATP, 10 μM pGSM peptide, 30 minutes at 30° C., read-out: IC50 (nM), GSK-3β inhibition;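 as to all read-outs here: phosphate incorporation quantified by liquid scintillation counting of the filters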
T1 construct: His6; purchased EMD Biosciences
T1 sequence (P49841 whole entry): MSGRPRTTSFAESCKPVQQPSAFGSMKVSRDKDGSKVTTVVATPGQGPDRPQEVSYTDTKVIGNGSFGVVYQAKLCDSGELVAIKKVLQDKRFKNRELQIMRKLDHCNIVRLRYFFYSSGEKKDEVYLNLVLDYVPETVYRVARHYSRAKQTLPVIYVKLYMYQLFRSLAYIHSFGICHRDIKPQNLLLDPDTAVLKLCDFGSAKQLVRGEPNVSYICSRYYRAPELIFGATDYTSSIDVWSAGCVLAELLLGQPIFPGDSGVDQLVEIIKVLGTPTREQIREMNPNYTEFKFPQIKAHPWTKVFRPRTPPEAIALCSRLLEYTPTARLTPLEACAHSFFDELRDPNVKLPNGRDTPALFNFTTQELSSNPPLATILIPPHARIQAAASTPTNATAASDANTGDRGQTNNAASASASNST

[2] = biological target: CDK2 (Homo sapiens, UniProt P24941); test: Inhibition of various kinases (% inhibition); assay type: biochemical
From the text: (§1) Additional examples of selectivity are illustrated in Table 4.

[3] = biological target: GSK3α (Homo sapiens, UniProt P49840); test: Inhibition of various kinases (% inhibition); assay type: biochemical
Chain of GSK3α (P49840 whole entry, species assumed): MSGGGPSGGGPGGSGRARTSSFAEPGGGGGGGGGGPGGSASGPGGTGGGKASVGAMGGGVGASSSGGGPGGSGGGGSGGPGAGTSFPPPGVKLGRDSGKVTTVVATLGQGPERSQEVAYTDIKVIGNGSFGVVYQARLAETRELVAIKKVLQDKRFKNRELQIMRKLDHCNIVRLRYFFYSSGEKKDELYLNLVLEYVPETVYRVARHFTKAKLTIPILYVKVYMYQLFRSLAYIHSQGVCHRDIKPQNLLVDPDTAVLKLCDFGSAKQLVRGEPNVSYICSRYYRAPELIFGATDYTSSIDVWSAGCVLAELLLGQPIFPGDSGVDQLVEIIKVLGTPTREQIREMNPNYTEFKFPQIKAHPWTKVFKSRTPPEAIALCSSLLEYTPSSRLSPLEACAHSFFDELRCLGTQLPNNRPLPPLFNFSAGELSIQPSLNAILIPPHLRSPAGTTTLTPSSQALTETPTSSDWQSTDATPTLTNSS
From the text: as §1

[4] = biological target: T2, PDK1 (Homo sapiens, UniProt O15530); test: Inhibition of various kinases (% inhibition); assay type: biochemical
T2 sequence (O15530 1-556): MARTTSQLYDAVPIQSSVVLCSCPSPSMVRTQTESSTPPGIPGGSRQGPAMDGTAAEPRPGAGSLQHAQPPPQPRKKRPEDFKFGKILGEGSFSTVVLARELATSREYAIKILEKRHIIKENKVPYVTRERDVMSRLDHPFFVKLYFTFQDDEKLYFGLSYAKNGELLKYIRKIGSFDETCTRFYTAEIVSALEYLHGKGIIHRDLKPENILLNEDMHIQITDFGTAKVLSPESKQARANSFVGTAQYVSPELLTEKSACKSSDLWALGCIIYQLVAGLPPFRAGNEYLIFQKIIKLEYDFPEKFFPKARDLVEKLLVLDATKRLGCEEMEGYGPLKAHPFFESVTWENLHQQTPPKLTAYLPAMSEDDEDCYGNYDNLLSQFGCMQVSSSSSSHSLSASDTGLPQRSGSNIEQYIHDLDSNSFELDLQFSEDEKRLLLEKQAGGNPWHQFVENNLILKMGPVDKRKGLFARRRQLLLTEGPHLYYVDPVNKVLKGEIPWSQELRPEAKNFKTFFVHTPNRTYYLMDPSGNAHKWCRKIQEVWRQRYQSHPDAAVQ
From the text: as §1

[5] = biological target: PKCβ2 (Homo sapiens, UniProt P05771); test: Inhibition of various kinases (% inhibition); assay type: biochemical
Chain of PKCβ2 (P05771 1-673 isoform P05771-2): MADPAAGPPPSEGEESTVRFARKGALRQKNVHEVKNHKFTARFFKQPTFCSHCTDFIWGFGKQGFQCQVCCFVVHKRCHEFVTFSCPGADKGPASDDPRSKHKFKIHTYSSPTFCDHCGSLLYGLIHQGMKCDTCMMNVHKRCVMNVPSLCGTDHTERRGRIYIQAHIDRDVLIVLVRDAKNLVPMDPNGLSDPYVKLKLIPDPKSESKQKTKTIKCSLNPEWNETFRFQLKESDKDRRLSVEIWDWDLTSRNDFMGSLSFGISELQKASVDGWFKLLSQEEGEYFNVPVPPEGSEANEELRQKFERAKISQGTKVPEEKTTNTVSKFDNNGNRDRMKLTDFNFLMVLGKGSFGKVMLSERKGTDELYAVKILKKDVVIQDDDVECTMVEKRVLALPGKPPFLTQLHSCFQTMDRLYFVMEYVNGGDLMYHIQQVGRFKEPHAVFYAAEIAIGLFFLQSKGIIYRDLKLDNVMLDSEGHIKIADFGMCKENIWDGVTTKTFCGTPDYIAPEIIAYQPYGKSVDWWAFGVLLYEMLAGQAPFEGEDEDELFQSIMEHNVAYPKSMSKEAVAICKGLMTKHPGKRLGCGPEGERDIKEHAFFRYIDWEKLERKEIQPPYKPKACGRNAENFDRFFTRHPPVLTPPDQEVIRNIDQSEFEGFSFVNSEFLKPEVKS
From the text: as §1

[6] = biological target: CDK-2/cyclinE (Homo sapiens, UniProt P24941); test: CDK-2/CyclinE inhibition (Reaction Biology); assay type: biochemical; conditions: for IC50 Ratio CDK-2/cyclinE GSK-3β: selectivity ratio; for IC50: tested at Reaction Biology, Inc.
[7] = system: MIAPaCa-2; test: Antiproliferation MTS assay, pancreatic cancer cells; assay type: cell-based; conditions: Homo sapiens
[8] = system: pancreatic cancer cell lines; test: Proliferation and survival of pancreatic cancer cells (overall statements); assay type: cell-based; conditions: based on data of Table 5
Protocol: (§2) The pancreatic cancer cell lines BxPc-3, HupT3, MiaPaCa-2, Panc 04.03, and SU86.86 were obtained from ATCC (Rockville, Md.) and were grown in medium (DMEM or RPMI) containing 10% fetal calf serum and L-glutamine. Pancreatic cancer cells were plated out in duplicate into 6-wells of a 96-well microtiter plate at 2.5−4×10^3 cells per well. Four-hours post plating, individual wells were treated with diluent (DMSO) or varying concentrations of commercial compounds, AR-A014418 and SB216763, or the indicated GSK inhibitors of this invention from a concentration of 1 nM to 50 microM. […] The IC50s were calculated using XLfit (IDBS Limited, Guildford, UK).

[9] = system: BXPC-3; test: Antiproliferation MTS assay, pancreatic cancer cells; assay type: cell-based; conditions: Homo sapiens, BXPC-3, as reported in Gaisina et al. (2009) J. Med. Chem. 52(7), 1853-1863
[10] = system: HupT3; test: as above; assay type: cell-based; conditions: Homo sapiens, HuP-T3, as reported in Gaisina et al. (2009) J. Med. Chem. 52(7), 1853-1863
[11] = biological target: CDK-1/cyclinB (Homo sapiens, UniProt P06493); test: CDK panel (Reaction Biology); assay type: biochemical; conditions: tested at Reaction Biology, Inc.
Chain of CDK-1/cyclinB (P06493 whole entry, species assumed): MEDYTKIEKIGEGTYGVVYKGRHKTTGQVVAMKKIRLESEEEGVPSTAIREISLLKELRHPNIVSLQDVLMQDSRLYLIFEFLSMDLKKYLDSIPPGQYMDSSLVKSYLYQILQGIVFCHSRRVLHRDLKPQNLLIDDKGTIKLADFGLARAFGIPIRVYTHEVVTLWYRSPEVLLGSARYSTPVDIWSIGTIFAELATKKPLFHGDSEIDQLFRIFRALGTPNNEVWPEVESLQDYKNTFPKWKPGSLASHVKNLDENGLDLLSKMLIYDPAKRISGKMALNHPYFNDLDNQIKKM
Chain of CDK-1/cyclinB (P14635 whole entry partner, species assumed): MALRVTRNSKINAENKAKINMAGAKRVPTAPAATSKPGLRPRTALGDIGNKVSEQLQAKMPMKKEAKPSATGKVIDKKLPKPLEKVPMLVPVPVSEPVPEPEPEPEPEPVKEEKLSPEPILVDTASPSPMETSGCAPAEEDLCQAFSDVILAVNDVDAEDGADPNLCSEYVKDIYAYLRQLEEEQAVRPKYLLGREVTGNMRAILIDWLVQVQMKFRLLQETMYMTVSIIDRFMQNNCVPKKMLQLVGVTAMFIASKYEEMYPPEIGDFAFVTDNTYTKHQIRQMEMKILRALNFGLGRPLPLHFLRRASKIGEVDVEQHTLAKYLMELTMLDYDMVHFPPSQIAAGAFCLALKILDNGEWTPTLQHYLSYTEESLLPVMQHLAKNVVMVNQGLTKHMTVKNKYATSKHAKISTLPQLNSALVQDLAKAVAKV

[12] = biological target: CDK-2/cyclinA (Homo sapiens, UniProt P24941); test: CDK panel (Reaction Biology); assay type: biochemical; conditions: tested at Reaction Biology, Inc.
[13] = biological target: CDK-4/cyclinD1 (Homo sapiens, UniProt P11802); test: CDK panel (Reaction Biology); assay type: biochemical; conditions: tested at Reaction Biology, Inc.
Chain of CDK-4/cyclinD1 (P11802 whole entry, species assumed): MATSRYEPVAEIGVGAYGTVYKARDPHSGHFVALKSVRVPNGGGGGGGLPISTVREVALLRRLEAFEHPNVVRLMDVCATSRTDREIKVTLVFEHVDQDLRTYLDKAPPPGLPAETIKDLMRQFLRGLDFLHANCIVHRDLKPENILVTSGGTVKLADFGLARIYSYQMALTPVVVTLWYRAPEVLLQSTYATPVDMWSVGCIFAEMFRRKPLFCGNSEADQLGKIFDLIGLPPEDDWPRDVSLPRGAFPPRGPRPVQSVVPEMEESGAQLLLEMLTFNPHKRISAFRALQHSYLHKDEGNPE
Chain of CDK-4/cyclinD1 (P24385 whole entry partner, species assumed): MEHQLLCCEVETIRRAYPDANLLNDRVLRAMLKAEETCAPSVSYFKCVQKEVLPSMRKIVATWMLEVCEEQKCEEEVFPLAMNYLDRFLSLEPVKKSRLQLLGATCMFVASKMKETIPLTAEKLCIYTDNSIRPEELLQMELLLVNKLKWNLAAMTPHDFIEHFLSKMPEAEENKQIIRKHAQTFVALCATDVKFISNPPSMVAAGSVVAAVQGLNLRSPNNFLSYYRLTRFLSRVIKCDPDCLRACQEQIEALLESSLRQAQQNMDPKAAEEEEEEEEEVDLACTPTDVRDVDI

[14] = biological target: CDK-6/cyclinD3 (Homo sapiens, UniProt Q00534); test: CDK panel (Reaction Biology); assay type: biochemical; conditions: tested at Reaction Biology, Inc.
Chain of CDK-6/cyclinD3 (Q00534 whole entry, species assumed): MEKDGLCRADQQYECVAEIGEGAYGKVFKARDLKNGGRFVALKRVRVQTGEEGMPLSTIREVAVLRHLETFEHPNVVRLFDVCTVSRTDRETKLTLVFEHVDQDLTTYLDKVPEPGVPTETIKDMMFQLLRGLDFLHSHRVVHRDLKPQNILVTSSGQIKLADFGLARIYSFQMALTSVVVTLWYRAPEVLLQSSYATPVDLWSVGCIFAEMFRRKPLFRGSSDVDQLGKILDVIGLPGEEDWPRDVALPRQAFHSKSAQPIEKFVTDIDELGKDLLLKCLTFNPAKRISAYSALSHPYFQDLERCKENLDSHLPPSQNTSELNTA
Chain of CDK-6/cyclinD3 (P30281 whole entry partner, species assumed): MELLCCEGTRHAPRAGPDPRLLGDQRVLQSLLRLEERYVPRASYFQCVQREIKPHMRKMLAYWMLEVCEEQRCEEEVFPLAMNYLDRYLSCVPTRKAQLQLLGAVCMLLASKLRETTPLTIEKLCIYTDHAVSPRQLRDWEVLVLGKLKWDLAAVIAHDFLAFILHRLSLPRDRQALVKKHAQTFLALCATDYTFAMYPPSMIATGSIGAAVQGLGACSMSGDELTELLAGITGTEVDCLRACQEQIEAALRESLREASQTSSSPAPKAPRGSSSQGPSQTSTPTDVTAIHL

[15] = system: OVCA432; test: Antiproliferation assay, ovarian cancer cells; assay type: cell-based; conditions: ovarian cancer cell proliferation
Protocol: as §2
(§3) Similar antiproliferation assays were performed using ovarian cancer cells. Compound 40 is of particular interest for inhibition of ovarian cancer cell proliferation.

[16] = system: SKOV3; test: Antiproliferation assay, ovarian cancer cells; assay type: cell-based; conditions: Homo sapiens, SK-OV-3; ovarian cancer cell proliferation
Protocol: as §2, §3

Compound	IC50 [1]	IC50 Ratio CDK-2/cyclinE GSK-3β [6]	IC50 [6]	IC50 ([7]; MIA PaCa-2, 72 hrs, MTS)	Inhibition of pancreatic cancer cell proliferation compared with AR-A014418 and SB216768 [8]	inhibition at 1 µM ([2]; 1 μM)	inhibition at 10 µM ([2]; 10 μM)	inhibition at 1 µM ([3]; 1 μM)	inhibition at 10 µM ([3]; 10 μM)	inhibition at 1 µM ([4]; 1 μM)	inhibition at 10 µM ([4]; 10 μM)	inhibition at 1 µM ([5]; 1 μM)	inhibition at 10 µM ([5]; 10 μM)	also measured
3-Benzofuran-3-yl-4-[5-bromo-1-(3-hydroxy-propyl)-1H-indol-3-yl]-pyrrole-2,5-dione [Compound 20]	7.5 ± 1.1 nM	150	1160 nM											Ki [1]: 5 nM; % Inhibition CDK2 ([2]; 1 μM): 76%; % Inhibition CDK2 ([2]; 10 μM): 90%; % Inhibition GSK3α ([3]; 1 μM): 58%; % Inhibition GSK3α ([3]; 10 μM): 100%; % Inhibition PDK1 ([4]; 1 μM): 7%; % Inhibition PDK1 ([4]; 10 μM): −1%; % Inhibition PKCβ2 ([5]; 1 μM): 8%; % Inhibition PKCβ2 ([5]; 10 μM): 62%
Cn1cc(C2=C(c3coc4ccccc34)C(=O)NC2=O)c2ccccc21 [Compound 1, 3-Benzofuran-3-yl-4-(1-methyl-1H-indol-3-yl)-pyrrole-2,5-dione]	35 ± 9 nM	40	1410 nM	3000 nM	more effective inhibition of pancreatic cancer cell proliferation than these reference compounds									
Cn1cc(C2=C(c3coc4ccccc34)C(=O)NC2=O)c2cc(F)c(Cl)cc21 [Compound 12, 3-Benzofuran-3-yl-4-(6-chloro-5-fluoro-1-methyl-1H-indol-3-yl)-pyrrole-2,5-dione]	184 ± 31 nM			< 1000 nM	more effective inhibition of pancreatic cancer cell proliferation than these reference compounds									IC50 ([7]; MIA PaCa-2, as reported in Gaisina et al. (2009) J. Med. Chem. 52(7), 1853-1863): 3000 ± 400 nM; IC50 [9]: 2000 ± 200 nM; IC50 [10]: 2000 ± 300 nM
O=C1NC(=O)C(c2cn(CCCO)c3ccc(Br)cc23)=C1c1coc2ccccc12 [Compound 21, 3-Benzofuran-3-yl-4-[5-bromo-1-(3-hydroxy-propyl)-1H-indol-3-yl]-pyrrole-2,5-dione]	1.61 ± 0.09 nM					62%	95%	62%	99%	80%	92%	62%	83%	
Cn1cc(C2=C(c3coc4cc(CO)ccc34)C(=O)NC2=O)c2cc(Br)ccc21 [Compound 22, 3-(5-Bromo-1-methyl-1H-indol-3-yl)-4-(6-hydroxymethyl-benzofuran-3-yl)-pyrrole-2,5-dione]			337 nM											IC50 [11]: 0.93 µM; IC50 [12]: 0.55 µM; IC50 [13]: 1.08 µM; IC50 [14]: 0.51 µM; IC50 [15]: 14200 nM; IC50 [16]: 51500 nM
C#CCOc1ccc2c(C3=C(c4cn(C)c5ccc(Br)cc45)C(=O)NC3=O)coc2c1 [Compound 23, 3-(5-Bromo-1-methyl-1H-indol-3-yl)-4-(6-prop-2-ynyloxy-benzofuran-3-yl)-pyrrole-2,5-dione]	25.3 ± 2.4 nM					22%	66%	84%	99%	12%	45%	3%	25%	
